Data as given in patent EP2687509A2, “Dicarboxyimides derivatives for use in the treatment of cancer” (Warszawski Uniwersytet Medyczny, priority 2012, dated 2014).

Assays:
K562 cells = assay: MTT cytotoxicity assay, K562 cells; assay type: cell-based, human; details: 48 h incubation, * = compound precipitated at 1 mM from cell cultures
Procedure: (§1) A series of dicarboximides derivatives (table 1) was tested for cytotoxic properties against four cell lines. The tests were conducted by means of MTT assay where yellow tetrazole salt was processed by the dehydrogenases in mitochondria of live cells into violet formazan. The following cell lines were used:
- K562 cells (human chronic myelogenous leukaemia) and
(§2) 1. HeLa, K562, HL60, HUVEC cells in an amount of 7 thousand cells / well (in 200 µL medium) were seeded in 96-well plates. Cells were incubated overnight in an incubator (37°C, 5% CO2)
(§3) 2. Test compounds were dissolved in DMSO and added in an amount of 2µL to the surface of the cells to give the following final concentrations in the cell culture (1 mM, 10 µm, 100 nM, 1 nM). As a control, cells exposed to 1% DMSO were used.
(§4) 3. Cytotoxicity of the test compounds was evaluated by MTT test. After 48-hour incubation of HeLa, K562, HL60 or HUVEC cells with the test compounds, MTT (5mg/mL) was added in an amount of 25µL/well. MTT, a yellow tetrazolium salt was reduced to purple formazan by mitochondrial dehydrogenases of living cells. The amount of formazan could be determined spectrophotometrically and was proportional to the number of live cells. Cells were incubated with MTT for 2 hours in an incubator (37°C, 5% CO2). Next, lysis buffer containing SDS and DMF was added (95µL/well) to each well and incubated overnight at 37°C, 5% CO2.
(§5) 4. The plates were analyzed by reading the absorbance at a wavelength of 570 nm and 650 nm using the plate-reader Fluostar Omega. The measured absorbance at 570 nm is proportional to the number of living cells. IC50 values (concentration of compound causing 50% cell mortality) were read from the charts by interpolation to 50% cell survival.

HeLa cells = assay: MTT cytotoxicity assay, HeLa cells; assay type: cell-based; details: Homo sapiens, 48 h incubation, * = compound precipitated at 1 mM from cell cultures
Procedure: as §1
- HeLa cells (uterine cervix cancer)
as §2, §3, §4, §5

HUVEC cells = assay: MTT cytotoxicity assay, HUVEC cells; assay type: cell-based; details: Homo sapiens, 48 h incubation, * = compound precipitated at 1 mM from cell cultures
Procedure: as §1
- HUVEC cells (normal human endothelial cells).
as §2, §3, §4, §5

caspase 3 and 7 = assay: Apo-ONE Homogeneous Caspase-3/7 Assay in K562 cells; assay type: cell-based, human; details: for activity of caspase 3 and 7: 5 x IC50 (a5: 10 µM), 18 hours, compared with K562 and K562+DMSO, Fig. 1
Procedure: The observed cytotoxicity of compounds a3-7 was tested for its origin, i.e. induction of necrosis or apoptosis in the K562 cells of chronic myelogenous leukaemia.
K562 cells in RPMI 1640 medium containing 10% fetal calf serum and antibiotics were seeded on 96-well plate in an amount of 20x10^3 cells / well. Cells were cultured for 24 hours in an incubator (5% CO2, 37°C).
Compounds a3-a7 were dissolved in DMSO and added to the cell medium; final concentration in the cell culture was 5 x IC50. Cells cultured in the presence of 1% DMSO served as a negative control. Cells grown in the presence of 1 µM staurosporin (a strong inducer of apoptosis) served as a positive control. […]
The activity of caspase 3 and 7 was determined by means of Apo-ONE® Homogeneous Caspase-3/7 Assay (Promega, Madison, WI, USA), in compliance with manufacturer's guidelines. Cells were lysed and incubated with a profluorescent substrate for caspases for 1.5 hours at room temperature. Due to proteolytic activity of caspases, the profluorescent substrate was converted into a fluorescent product the amount of which could be determined by measurement of fluorescence intensity.
The fluorescence intensity in each well was measured using a plate reader Fluostar Omega (BMG-Labtech, Germany) at an excitation wavelength of 485 nm and emission 520 nm. The intensity of fluorescence is proportional to the activity of caspase 3 and 7 in the sample.

HL60 cells = assay: MTT cytotoxicity assay, HL60 cells; assay type: cell-based; details: Homo sapiens, HL-60, 48 h, 48 h incubation
Procedure: as §1
- HL60 cells (human acute myelogenous leukaemia)
as §2, §3, §4, §5

[1] = * = compound precipitated at 1 mM from cell cultures

| Compound | IC50 (K562 cells; Homo sapiens, K562, 48 h) [µM] | IC50 (HeLa cells) [µM] | IC50 (HUVEC cells) [µM] | also measured |
| --- | --- | --- | --- | --- |
| CN(C)CCCN1C(=O)C2C(C1=O)C1(c3ccccc3)CC2(c2ccccc2)C(c2ccccc2)=C1c1ccccc1 (stereo not shown) [a2] | 1 | 1 | 4 | – |
| CC(C)COC12CCC(C(=O)C1)C1C(=O)N(CCN3CCOCC3)C(=O)C12 (stereo not shown) [c3] | > 1000 | > 1000 | – | – |
| CC(=O)OC12C=CC(OC(C)=O)(CC1)C1C(=O)N(CCN(C)C)C(=O)C12 (stereo not shown) [b6] | > 1000 | > 1000 | – | – |
| CC1=CC2(C)CC(C)(C)C1C1C(=O)N(CCN(C)C)C(=O)C12 (stereo not shown) [b11] | 100 | 90 | 300 | – |
| CC1=CC2(C)CC(C)(C)C1C1C(=O)N(CCN3CCOCC3)C(=O)C12 (stereo not shown) [b13] | 90 | 90 | 100 | – |
| CC(C)COC12CCC(C(=O)C1)C1C(=O)N(CCCN(C)C)C(=O)C12 (stereo not shown) [c5] | > 1000 | > 1000 | – | – |
| CCOC(=O)C1CC2C(=O)CC1(C)C1C(=O)N(CCN3CCCCC3)C(=O)C21 (stereo not shown) [c9] | > 1000 | > 1000 | – | – |
| CCOC(=O)C1CC2C(=O)CC1(C)C1C(=O)N(CCCN(C)C)C(=O)C21 (stereo not shown) [c10] | > 1000 | > 1000 | – | – |
| CC(C)NCC(O)CN1C(=O)C2C(C1=O)C1(c3ccccc3)C(=O)C2(c2ccccc2)C(c2ccccc2)=C1c1ccccc1 (stereo not shown) [a13] | 0.9 | 1 | 2 | – |
| CC(C)NCC(O)CN1C(=O)C2C(C1=O)C1(c3ccccc3)CC2(c2ccccc2)C(c2ccccc2)=C1c1ccccc1 (stereo not shown) [a9] | 1 | 1 | 1 | – |
| CCC12C(=O)C(CC)(C(c3ccccc3)=C1c1ccccc1)C1C(=O)N(CCN3CCCCC3)C(=O)C12 (stereo not shown) [a5] | 1 to 10 | > 1000 | > 1000 | activity of caspase 3 and 7 (caspase 3 and 7): increased; activity of caspases 3 and 7 (caspase 3 and 7; a5 concentration = 10 µM, incubation time = 24h): increased; IC50 (K562 cells): 2 µM; IC50 (HL60 cells): 1 to 10 µM; IC50 (HL60 cells; [1]): > 1000 µM |
| COC12C=CC(CC1)C1C(=O)N(CCN3CCOCC3)C(=O)C12 (stereo not shown) [b3] | > 1000 | > 1000 | – | – |
| CCC12C(=O)C(CC)(C(c3ccccc3)=C1c1ccccc1)C1C(=O)N(CC(O)CN(C)C)C(=O)C12 (stereo not shown) [a8] | > 1000 | > 1000 | – | – |
| CN(C)CCN1C(=O)C2C(C1=O)C1(c3ccccc3)CC2(c2ccccc2)C(c2ccccc2)=C1c1ccccc1 (stereo not shown) [a1] | 1 | 1 | > 1000 | – |
| CC1=CC2(C)CC(C)(C)C1C1C(=O)N(CCCN(C)C)C(=O)C12 (stereo not shown) [b15] | 90 | 100 | 700 | – |
| CCN(CC)CCN1C(=O)C2C3C=CC(OC)(CC3)C2C1=O (stereo not shown) [b2] | > 1000 | > 1000 | – | – |
| CCOC(=O)C1CC2C(=O)CC1(C)C1C(=O)N(CCN3CCOCC3)C(=O)C21 (stereo not shown) [c8] | > 1000 | > 1000 | – | – |
| CCN(CC)CCN1C(=O)C2C3C(C)=CC(C)(CC3(C)C)C2C1=O (stereo not shown) [b12] | > 1000 | 1000 | – | – |
| COC12C=CC(CC1)C1C(=O)N(CCCN(C)C)C(=O)C12 (stereo not shown) [b5] | > 1000 | > 1000 | – | – |

| Compound | IC50 (K562 cells; Homo sapiens, K562, 48 h) [µM] | IC50 (HeLa cells) [µM] | IC50 (HUVEC cells) [µM] | also measured |
| --- | --- | --- | --- | --- |
| CCC12C(=O)C(CC)(C(c3ccccc3)=C1c1ccccc1)C1C(=O)N(CCN(C)C)C(=O)C12 (stereo not shown) [a3] | – | > 1000 | > 1000 | activity of caspase 3 and 7 (caspase 3 and 7): do not increase; IC50 (K562 cells): 10 µM; IC50 (HL60 cells): 1 to 10 µM; IC50 (HL60 cells; [1]): > 1000 µM |
| CC1=CC2(C)CC(C)(C)C1C1C(=O)N(CCN3CCCCC3)C(=O)C12 (stereo not shown) [b14] | 100 | 100 | – | – |
| COC12C=CC(CC1)C1C(=O)N(CCN3CCCCC3)C(=O)C12 (stereo not shown) [b4] | > 1000 | > 1000 | – | – |
| CC(=O)OC12C=CC(OC(C)=O)(CC1)C1C(=O)N(CCN3CCOCC3)C(=O)C12 (stereo not shown) [b8] | > 1000 | > 1000 | – | – |
| CN(C)CC(O)CN1C(=O)C2C(C1=O)C1(c3ccccc3)C(=O)C2(c2ccccc2)C(c2ccccc2)=C1c1ccccc1 (stereo not shown) [a14] | 0.9 | 1 | 2 | – |
| COC12C=CC(CC1)C1C(=O)N(CCN(C)C)C(=O)C12 (stereo not shown) [b1] | > 1000 | > 1000 | – | – |
| CC(C)COC12CCC(C(=O)C1)C1C(=O)N(CCN(C)C)C(=O)C12 (stereo not shown) [c1] | > 1000 | > 1000 | – | – |
| CCN(CC)CCN1C(=O)C2C(C1=O)C1(OC(C)=O)C=CC2(OC(C)=O)CC1 (stereo not shown) [b7] | > 1000 | > 1000 | – | – |
| CN(C)CC(O)CN1C(=O)C2C(C1=O)C1(C)C(=O)C2(C)C(c2ccccc2)=C1c1ccccc1 (stereo not shown) [a12] | 90 | 100 | 100 | – |
| CC(C)NCC(O)CN1C(=O)C2C(C1=O)C1(C)C(=O)C2(C)C(c2ccccc2)=C1c1ccccc1 (stereo not shown) [a11] | 90 | 90 | 70 | – |
| CC(=O)OC12C=CC(OC(C)=O)(CC1)C1C(=O)N(CCCN(C)C)C(=O)C12 (stereo not shown) [b10] | > 1000 | > 1000 | – | – |
| CCC12C(=O)C(CC)(C(c3ccccc3)=C1c1ccccc1)C1C(=O)N(CCCN(C)C)C(=O)C12 (stereo not shown) [a6] | – | > 1000 | > 1000 | activity of caspase 3 and 7 (caspase 3 and 7): do not increase; IC50 (K562 cells): 8 µM; IC50 (HL60 cells): 1 to 10 µM; IC50 (HL60 cells; [1]): > 1000 µM |
| CC(=O)OC12C=CC(OC(C)=O)(CC1)C1C(=O)N(CCN3CCCCC3)C(=O)C12 (stereo not shown) [b9] | > 1000 | > 1000 | – | – |
| CC(C)COC12CCC(C(=O)C1)C1C(=O)N(CCN3CCCCC3)C(=O)C12 (stereo not shown) [c4] | > 1000 | > 1000 | – | – |
| CN(C)CC(O)CN1C(=O)C2C(C1=O)C1(c3ccccc3)CC2(c2ccccc2)C(c2ccccc2)=C1c1ccccc1 (stereo not shown) [a10] | 1 | 1 | 1 | – |
| CCOC(=O)C1CC2C(=O)CC1(C)C1C(=O)N(CCN(C)C)C(=O)C21 (stereo not shown) [c6] | > 1000 | 100 | > 1000 | – |
| CCOC(=O)C1CC2C(=O)CC1(C)C1C(=O)N(CCN(CC)CC)C(=O)C21 (stereo not shown) [c7] | > 1000 | > 1000 | – | – |
| CCN(CC)CCN1C(=O)C2C3CCC(OCC(C)C)(CC3=O)C2C1=O (stereo not shown) [c2] | > 1000 | > 1000 | – | – |
